This note sets out measurements from patent US20240317734A1, “BI-FUNCTIONAL COMPOUNDS AND METHODS FOR TARGETED UBIQUITINATION OF ANDROGEN RECEPTOR” (MONTELINO THERAPEUTICS, INC., priority 2021, published 2024).

The subject of the assay is 22Rv1-Enz^R. Put plainly: 22Rv1-Enz^R cell proliferation assay. In kind it is cell-based. Particulars: human prostate cancer cell line 22Rv1-Enz^R; 6-day culture, cell media changed every 24 hours; half maximal growth inhibition constant; read-out: 22Rv1-Enz^R proliferation assay GIC50. The procedure: The human prostate cancer cell line, 22Rv1 has been reported to express a high level of AR-V7. According to one procedure, 22Rv1 is seeded at 50,000 cells/well on a 24-well plate in quadruplicate and treated with test compounds in concentrations ranging up to 20 μM for four days. Standard culture media is RPMI-1640 supplemented with 10% fetal bovine serum. The test compound initially is dissolved in DMSO at 50 mM. This stock solution is then diluted as needed for the indicated concentrations. At the end of the four-day period, cells are harvested using 1% trypsin and counted using an automated cell counter.
Cell Culture. Human CaP cell lines, LNCaP, 22Rv1, VCaP, PC3, and DU145 are obtained from the American Type Culture Collection (ATCC) and maintained in the standard culture media: RPMI-1640 supplemented with 10% fetal bovine serum (FBS). LNCaP, 22Rv1, and VCaP are androgen-responsive cell lines, while PC3 and DU145 are not. To establish SAT resistant CaP cell lines, LNCaP, 22Rv1, and VCaP are treated continuously with 10-50 μM abiraterone, apalutamide, darolutamide, or enzalutamide. After 3-6 months, stable cell lines are established and designated as LNCaP-Abi^R, LNCaP-Apa^R, LNCap-Daro^R, LNcaP-Enz^R, VcaP-Abi^R, VCaP-Apa^R, VCaP-Daro^R, VCaP-Enz^R, 22Rv1-Abi^R, 22Rv1-Apa^R, 22Rv1-Daro^R, and 22Rv1-Enz^R. Unless otherwise specified, the standard culture media for these SAT-resistant cell lines included 10 μM of their respective SAT. For the proteasome inhibitor study, the inhibitors MG132 and Epoxomicin are used. The E3 ligase inhibitors Heclin, Nutlin 3a, Thalidomide, and VH298 are used. Cell lines obtained from ATCC are confirmed by checking their morphology using optical microscopy, establishing baselines for cell proliferation, verifying species of origin using isoenzymology, and characterizing the cell's DNA fingerprint using short tandem repeat (STR) profiling. Mycoplasma contamination is also assessed using a PCR based detection system.
Selected compounds may be tested in the human prostate cancer cell line, 22Rv1-Enz^R, as described in Geun Tack Lee et al., Molecular Cancer Therapeutics, 20:490-9 (2021). These procedures are similar to that described in Experimental Example 1, above, except that the assay conditions are a 6-day culture with cell media changed every 24 hours.

Each structure is given as a SMILES string.

In the case of `O=C(COc1c(-c2csc(N3CCOCC3)n2)ccc(F)c1F)NCCCCCCNc1ccc2nnn(C3CCC(=O)NC3=O)c(=O)c2c1` (stereo not shown) [Example 2, 2-(2,3-difluoro-6-(2-morpholinothiazol-4-yl)phenoxy)-N-(6-((3-(2,6-dioxopiperidin-3-yl)-4-oxo-3,4-dihydrobenzo[d][1,2,3]triazin-6-yl)amino)hexyl)acetamide], the IC50 was below 10 µM.
Then `O=C1CCC(n2nnc3ccc(NCCOCCOCCOc4c(-c5csc(N6CCOCC6)n5)ccc(F)c4F)cc3c2=O)C(=O)N1` (stereo not shown) [Example 3, 3-(6-((2-(2-(2-(2,3-difluoro-6-(2-morpholinothiazol-4-yl)phenoxy)ethoxy)ethoxy)ethyl)amino)-4-oxobenzo[d][1,2,3]triazin-3(4H)-yl)piperidine-2,6-dione], with below 100 µM.
With `O=C(COc1c(-c2csc(N3CCOCC3)n2)ccc(F)c1F)NCCCCCCCCCCNc1ccc2nnn(C3CCC(=O)NC3=O)c(=O)c2c1` (stereo not shown) [Example 4, 2-(2,3-difluoro-6-(2-morpholinothiazol-4-yl)phenoxy)-N-(10-((3-(2,6-dioxopiperidin-3-yl)-4-oxo-3,4-dihydrobenzo[d][1,2,3]triazin-6-yl)amino)decyl)acetamide], the IC50 is below 10 µM.
Then `O=C(COc1c(-c2csc(N3CCOCC3)n2)ccc(F)c1F)NCCCCNc1ccc2nnn(C3CCC(=O)NC3=O)c(=O)c2c1` (stereo not shown) [Example 1, 2-(2,3-difluoro-6-(2-morpholinothiazol-4-yl)phenoxy)-N-(4-((3-(2,6-dioxopiperidin-3-yl)-4-oxo-3,4-dihydrobenzo[d][1,2,3]triazin-6-yl)amino)butyl)acetamide], with below 100 µM.
